Measured values from a melting point compilation (Tetko et al.; mined from patent text by program, amines drawn as free bases though some values may be those of a salt).

Row | SMILES | melting point [°C]
1 | COC(=O)c1ccc(Br)cc1CBr | 78 to 79
2 | COc1nc(OC)c(C=O)c(N(C)C)n1 | 150
3 | NC(=O)c1c(N)oc2ccc(Cl)cc2c1=O | 320
4 | NC(=O)Cc1cccc(-c2csc(N=C(N)N)n2)n1 | 254
5 | CC(C)(C)c1cc(CN2CCN(c3ccc(N)cc3)CC2)cc(C(C)(C)C)c1O | 152 to 154
6 | O=C1CCC2(CN1)C(=O)C(=O)c1ccccc12 (centres undefined) | 227 to 228
7 | N#CC1(CCNC(=O)C(Cl)Cl)CCCCC1 | 109 to 114
8 | COc1ccc2c(C)c(CCO)c(=O)oc2c1OC | 113 to 114
9 | Cn1nccc1COC(=O)Cc1ccccc1 | 80 to 83
10 | Cn1c(SC(F)F)n[nH]c1=O | 87
11 | Nc1nc(CSCCN2CCN(C(c3ccccc3)c3ccccc3)CC2)cs1 | 159 to 161
12 | Cc1cccc(C=CC=C2SC(=S)N(CC(=O)O)C2=O)c1 | 220 to 226
13 | CS(=O)(=O)c1nccn1CC(=O)Cl | 132 to 133
14 | CC(C)CC(NC(=O)N1CCCCCC1)C(=O)NC(Cc1ccc(C#Cc2ccccc2)cc1)C(=O)NC(C)(C)C (centres undefined) | 115 to 117
15 | CN1CCC(=C(c2ccc(F)cc2)c2cccnc2)CC1 | 93.1
16 | Cc1c[nH]c2c([N+](=O)[O-])cccc2c1=O | 235 to 243
17 | COCCCn1c(CO)c(Cl)c2c3c(c(-c4ccccc4Cl)cc21)C(=O)NC3=O | 214 to 215
18 | CC(=O)N(C)c1cc2c(nc(C)n2C)c(O)c1CN(C)C | 181 to 184
19 | CCCCCCCCCCCCCCCCSCC(CNS(=O)(=O)CCCCl)NC(=O)NC (centres undefined) | 79 to 80
20 | O=Cc1c[nH]c2c1ccc1c3cc([N+](=O)[O-])ccc3[nH]c12 | > 250
21 | Clc1ccc(C(Cl)c2cc3cc(Br)ccc3o2)cc1 (centres undefined) | 83 to 85

Row | SMILES | melting point [°C]
22 | Nc1cc(Br)c(F)c(Cl)c1F | 86 to 88
23 | O=[N+]([O-])c1cc(S(=O)(=O)C(F)(F)F)[nH]c1-c1ccc(Cl)cc1 | 97 to 99
24 | O=C(C1CCCCC1)C1CCN(S(=O)(=O)c2ccccc2)CC1 | 141 to 143
25 | N#CCCn1[nH]c(C#N)cc1=O | 162 to 164
26 | CCCc1c(CSc2nnc(N)s2)ccc(C(C)=O)c1O | 143 to 147
27 | O=C(O)CC(=O)Nc1cc2ccccc2cc1C(=O)O | 225 to 227
28 | NP(N)(=O)OCC(Cl)(Cl)Cl | 86 to 87
29 | c1ccc2c(N3CCNCC3)nccc2c1 | 54 to 56
30 | CCCCCNc1cccc2c1C(=O)N(C1CCC(=O)NC1=O)C2=O (centres undefined) | 141 to 143
31 | O=C(CC[C@@H](C(=O)OCc1ccccc1)n1c2ccccc2c2ccccc21)OCCOC(=O)c1ccc(NC(=O)OCc2ccccc2)cc1 | 45
32 | COC1CC2(C)C(CCC3C4CCC(C(=O)COC(C)=O)C4(C)CC(=O)C32)CC1O (centres undefined) | 177 to 180
33 | O=C(CSc1ccccc1)C1CCCCN1 (centres undefined) | 68.5 to 69.5
34 | CCOC(=O)c1c(C(F)(F)F)nc(C(F)F)c(C(=O)O)c1NC1CC1 | 120 to 122
35 | CCCCCCCCCCCCCc1cc(C(=O)OCCC)c[nH]1 | 51 to 52
36 | CC(=O)N(C)Cc1ccc(F)cc1 | 48 to 54
37 | CN(C)C=C(C1=NCCCS1)[N+](=O)[O-] | 168 to 170
38 | C1=C(c2ccccc2)CSS1 | 122 to 124
39 | COC(=O)c1ccc2c(c1)SCCC2O (centres undefined) | 79 to 81
40 | COC(=O)CCCCSCCCCCCCCCCCOS(=O)(=O)c1ccc(C)cc1 | 54
41 | COC(=O)c1ccc2c(c(C)nn2C)c1C1=NC(C)(C(C)C)C(=O)N1 (centres undefined) | 130 to 150

Now from value to compound:

Row | melting point [°C] | SMILES
42 | 110 to 112 | CCOC(=O)CCN1CCC[C@H](NCc2ccccc2OC)[C@@H]1c1ccccc1 (relative stereo)
43 | 147 to 149 | CCN(CC)CC1CCCCN1CC(=O)N1c2ccccc2NC(=O)c2csc(C)c21 (centres undefined)
44 | 133 to 135 | O=C(Nc1ccc(N2CCN(C(=O)C(O)c3ccc(O)cc3Cl)CC2)nc1)Nc1ccccc1F (centres undefined)
45 | 219 to 220 | O=c1c2cc(F)c(N3CCCC3)nc2n(Cc2ccccc2)c(=O)n1O
46 | > 250 | O=C(O)c1ccc(-c2cccc(C(=O)O)c2)cc1
47 | 208 to 210 | CCN(CC)C1CCN(c2cccc(-c3cnn4c(N)c(-c5ccc(F)cc5)c(C)nc34)c2)CC1
48 | 180 | CCCC1=C(C(=O)OCC)C(c2cccc3nsnc23)c2c[nH]nc2N1 (centres undefined)
49 | 199 | CCCCc1ccc(OC)c(-c2csc(NC(=O)c3ccc(C(=O)N4CCC(N5CCC[C@H]5CO)CC4)cc3)n2)c1
50 | 106 to 108 | CCOC(=O)c1ccc2cnccc2n1
51 | 107 to 108 | COc1cccc(CN2C(=O)N(c3cnn(Cc4c(C)noc4C)c3)C(=O)C2(C)C)c1
52 | 235 to 237 | O=C(NN=C1c2ccc(F)cc2CC1(O)c1ccc(F)cc1)Nc1ccc(Br)cc1 (centres undefined)
53 | 190 to 191 | COC(=O)c1cccc(-n2cnc3cc(-c4ccno4)ccc32)c1
54 | 91 to 93 | CC1CN(c2ccccc2)c2ccccc2N1 (centres undefined)
55 | 185 to 187 | N#CSc1ccc(-c2nc3ccc(N)c(SC#N)c3nc2-c2ccco2)o1
56 | 109 to 110 | O=S(=O)(NCCCCOc1ccc(-n2cnnn2)cc1)c1ccc(Br)cc1
57 | 95 to 96 | CCOP(=O)(/C=C/c1cn(CCO)nc1OCc1ccc(OCc2nc(-c3ccco3)oc2C)c(OC)c1)OCC
58 | 150 | CC(C)(C(=O)c1ccc(Cl)cc1)n1ncn(-c2ccc(N3CCN(Cc4ccccc4)CC3)cc2)c1=O

Row | melting point [°C] | SMILES
59 | 210 to 212 | COc1cccc(Nc2cccc3c2C(=O)N(C2CCC(=O)NC2=O)C3=O)c1 (centres undefined)
60 | 196 to 197 | CN(C)c1nc2ccccc2nc1/C=C/c1nc(Cl)cc(N2CCCC2)n1
61 | 134 to 136 | Cn1cc(-c2cc(-c3c[nH]nc3-c3ccccn3)ccc2F)cn1
62 | 65 to 66 | CCC(=Cc1cccc([N+](=O)[O-])c1)C(=O)Oc1ccc(OC)cc1
63 | 125 to 126 | COCc1c(-c2ccno2)ncc2[nH]c3ccc(OCc4ccccc4)cc3c12
64 | 299 to 303 | CCCn1cc2c(C3C(=O)Nc4ccc(Br)cc43)nc(NCCN3CCOCC3)nc2n1 (centres undefined)
65 | 221 to 224 | O=C(O)c1cc(=O)c2cccc(COc3ccc(OCc4ccc5ccccc5n4)cc3)c2o1
66 | 205 | Cc1ccc(F)c(C(C)Oc2ccc3nc(-c4ccccc4OC(N)=O)sc3c2)c1Cl (centres undefined)
67 | 140 to 142 | CS(=O)(=O)c1ccc(-c2cc(Cl)ccc2OCC(=O)O)cc1Cl
68 | 75 | O=C(O)CSc1cccc(CNC(=O)C2Cc3ccccc3N2S(=O)(=O)c2ccc(-c3cccc(C(F)(F)F)c3)cc2)c1 (centres undefined)
69 | 112 to 114 | COc1cc(CCl)ccc1OCc1nc(-c2cccc(OS(C)(=O)=O)c2)oc1C
70 | 79 to 81 | COc1cc(OCc2ccccc2)cc(Cl)c1Cl
71 | 128 to 129 | CCOC(=O)C(=O)Nc1cc(C)nc(N2CCc3ccccc3C2)c1
72 | 160 to 161 | CCOC(=O)C1CCNCC1c1nc2cc(-c3ccc(OC)cc3)nnc2c2ccccc12 (centres undefined)
73 | 94 to 104 | Cc1cc(OC/C=C(/c2ccc(Cl)cc2)c2ccc(C#CCN3CCC(CO)CC3)cc2)ccc1OCC(=O)O
74 | 138 to 139 | O=c1ccn(-c2ccccc2Cl)nc1-c1ccnn1-c1ccccc1
